The nature of data set [1]: Pharmacokinetics of oxazolidinones after single oral dose, plasma LC/MS. Format: in vivo, BALB/c mice. Here is the method:
Pharmacokinetics of oxazolidinones. Uninfected female BALB/c mice weighing approximately 20 g received single doses of SZD (50 mg/kg), LZD (100 mg/kg), TZD (10 or 20 mg/kg) or AZD (50 or 200 mg/kg). Three mice per dose per time point were sampled by cardiac puncture at 0.5, 1, 2, 4, 8 and 24 hours post-dose (plus an additional 16 hour time point for AZD). Plasma drug concentrations were quantified by a validated LC/MS method performed at AstraZeneca (for AZD only) (14) or Rutgers New Jersey Medical School (for other oxazolidinones). Standards for the different oxazolidinones were provided by the sponsors. At Rutgers, analytes of interest were extracted by combining 20 μl of mouse plasma with 20 μl of acetonitrole:water (1:1), and 180 μl of methanol:acetonitrile (1:1) containing 10 mg/ml of verapamil (Sigma-Aldrich) as internal standard. The mixture was vortexed and centrifuged, and 100 μL of the supernatant was recovered and combined with 10 μL of water for analysis. LC/MS-MS analysis was performed with an Agilent 1260 LC-system coupled to an AB Sciex 4000 Q-trap Mass Spectrometer (positive mode, electrospray ionization), and an Agilent column SB-C8, 2.1×30 mm, 3.5 μm, with the column temperature fixed at 24° C. Mobile phase A was 0.1% formic acid in 100% H2O and mobile phase B was 0.1% formic acid in 100% acetonitrile. Injection volumes were routinely 2 μl. The Mass Selective Detector was set to MRM (multiple reaction monitoring) mode using positive polarity ionization, monitoring for the ions of interest SZD (m/z 354.12/312.04), SZD-M1(370.13/238.12), LZD(338.00/235.00), and TZD(371.12/343.00) and the internal standard (m/z 455.4/165.2). The lower limit of quantification for all oxazolidinones was […]. PK parameters were determined by non-compartmental analysis using WinNonlin 6.4 (Certara, Princeton, NJ).

The subject of data set [2] is Mycobacterium tuberculosis H37Rv. Format: in vivo.
The test system of data set [3] is Gram-positive and Gram-negative bacteria. The note with it: cited from earlier work.
For another data set, the system named is cytochrome P450. The note with it: cited from earlier work.
Where [4] appears, read: female, BALB/c, mouse, in vivo, single oral dose 50 mg/kg, mean, plasma, read-out: AUC0-24 hr.
[5] abbreviates: female, BALB/c, mouse, in vivo, single oral dose 50 mg/kg, mean, plasma, read-out: Cmax.
Setting [6] is: female, BALB/c, mouse, in vivo, single oral dose 50 mg/kg, mean, plasma, read-out: Tmax.
The mark [7] stands for this setting: female, BALB/c, mouse, in vivo, single oral dose 50 mg/kg, mean, plasma, read-out: t1/2 (converted).
The mark [8] stands for this setting: Example 1, lung, 1 month of treatment, D0 count 6.17±0.27, PMD 50 mg/kg, LZD 100 mg/kg, SZD 50 mg/kg.
Where [9] appears, read: M1 metabolite after single oral dose of sutezolid 50 mg/kg, mean, plasma.
[10] abbreviates: female, BALB/c, mouse, in vivo, po, 10 mg/kg.
Where [11] appears, read: female, BALB/c, mouse, in vivo, po, 20 mg/kg.
Setting [12] is: female, BALB/c, mouse, in vivo, po, 100 mg/kg.

Read-outs that look alike come from different tables or passages of the source.

Usually Cmax stands for the maximum level reached in the sampled fluid or tissue. In general, Tmax refers to the time at which the peak concentration occurs. For the molecule `O=C([C@@H](O)CO)N1CC=C(c2c(F)cc(N3C[C@H](COc4ccon4)OC3=O)cc2F)CC1` [AZD], the “predicted AUC0-24 h” value in data set [1] (125 mg/kg dose, interpolated between the 50 and 200 mg/kg doses) is 160000 to 190000 ng·h/mL. Moreover, the AUC(0-t) in data set [1] (setting [4]) worked out at 74800 ng·h/mL; in data set [1] (female, BALB/c, mouse, in vivo, single oral dose 200 mg/kg, mean, plasma, read-out: AUC0-24 hr) it was 220000 ng·h/mL. The Cmax in data set [1] (setting [5]) turned out to be 20400 ng/mL; in data set [1] (female, BALB/c, mouse, in vivo, single oral dose 200 mg/kg, mean, plasma, read-out: Cmax) it was 31400 ng/mL. Moreover, the Tmax in data set [1] (setting [6]) is 42 min; in data set [1] (female, BALB/c, mouse, in vivo, single oral dose 200 mg/kg, mean, plasma, read-out: Tmax) it was 42 min. For the same molecule, the half-life in data set [1] (setting [7]) is 144 min; in data set [1] (female, BALB/c, mouse, in vivo, single oral dose 200 mg/kg, mean, plasma, read-out: t1/2 (converted)) it was 516 min.
Regarding `CC(=O)NC[C@H]1CN(c2ccc(N3CCSCC3)c(F)c2)C(=O)O1` [SZD, sutezolid], in data set [2] (setting [8]), the “Mean (±SD) log10 CFU count at M1” value is on record as 3.85 ± 0.37 log10 CFU. Further, the AUC(0-t) in data set [1] (setting [4]) is 3360 ng·h/mL. Further, the Cmax in data set [1] (setting [5]) was found to be 1290 ng/mL. Further, the Tmax in data set [1] (setting [6]) turned out to be 30 min. In addition, the half-life in data set [1] (setting [7]) was 168 min.
For `CC(=O)NC[C@H]1CN(c2ccc(N3CC[S+]([O-])CC3)c(F)c2)C(=O)O1` [Sutezolid M1], in data set [1] (setting [9]), the AUC0-24 hr was 31945 ng·h/mL, the Cmax turned out to be 15233 ng/mL and the Tmax came to 30 min. Also, in data set [1] (after oral SZD 50 mg/kg), the “Cmax relative to SZD parent” value is “approximately 10 times” and the “mean AUC0-24 h relative to SZD parent” value is reported as “approximately 10 times”.
Consider `Cn1nnc(-c2ccc(-c3ccc(N4C[C@H](CO)OC4=O)cc3F)cn2)n1` [TZD, tedizolid], for which the AUC(0-t) in data set [1] (female, BALB/c, mouse, in vivo, 10 mg/kg, total drug AUC0-24 h) turned out to be 40000 ng·h/mL; in data set [1] (female, BALB/c, mouse, in vivo, po, 10 mg/kg, AUC0-24 hr), 40400 ng·h/mL; in data set [1] (female, BALB/c, mouse, in vivo, po, 20 mg/kg, AUC0-24 hr), 77700 ng·h/mL. In addition, the Cmax in data set [1] (setting [10]) came out at 6420 ng/mL; in data set [1] (setting [11]), 11400 ng/mL. In addition, the results for the Tmax in data set [1] (setting [10]) and in data set [1] (setting [11]) were 42 min and 30 min, respectively. Further, the half-life in data set [1] (setting [10]) is 180 min; in data set [1] (setting [11]), 234 min.
On to `CC(=O)NC[C@H]1CN(c2ccc(N3CCOCC3)c(F)c2)C(=O)O1` [LZD, (S)—N-[[3-[3-Fluoro-4-(4morpholinyl)phenyl]-2-oxo-5-oxazolidinyl]methyl]-acetamide], for which, in data set [2] (in vivo), the “Mean (±SD) log10 CFU count at M1” value was 4.97 ± 0.26 log10 CFU. This molecule also registered a Cmax in data set [1] (setting [12]) of 81900 ng/mL. Moreover, the Tmax in data set [1] (setting [12]) amounted to 30 min. The AUC(0-t) in data set [1] (female, BALB/c, mouse, in vivo, po, 100 mg/kg, AUC0-24 h) is 244000 ng·h/mL; in data set [1] (female, BALB/c, mouse, in vivo, po, 100 mg/kg, AUC0-24 hr) it was 244000 ng·h/mL. In data set [1] (female, BALB/c, mouse, single oral dose 100 mg/kg, mean, plasma, read-out: t1/2 (converted)), the half-life was 180 min.
Turning to `COc1nc2ccc(Br)cc2cc1[C@@H](c1ccccc1)[C@@](O)(CCN(C)C)c1cccc2ccccc12` [BDQ, (1R, 2S)-1-(6-bromo-2methoxy-3-quinolinyl)-4-(dimethylamino)-2-(1-naphthalenyl)-1-phenyl-2-butanol compound with fumaric acid (1:1)], the “Mean (±SD) log10 CFU count at M1” value in data set [2] (setting [8]) was 3.24 ± 0.25 log10 CFU.
With `O=[N+]([O-])c1cn2c(n1)OCC(OCc1ccc(OC(F)(F)F)cc1)C2` (stereo in doubt) [PMD, (6S)-2-nitro-6-{[4-(trifluoromethoxy)benzyl]oxy}-6,7-dihydro-5H-imidazo[2,1-b][1,3]oxazine], the “activity against a broad range of Gram-positive and Gram-negative bacteria” value in data set [3] is reported as “no significant activity”. Moreover, the “cytochrome P450 interactions” value in the data set with cytochrome P450 is given as “no significant cytochrome P450 interactions”. Also, the “Mean (±SD) log10 CFU count at M1” value in data set [2] (setting [8]) is 4.57 ± 0.22 log10 CFU.

(Values after patent US20230414625A1, “Combination Antibacterial Composition and Short-Course Antibacterial Regimen” (The Global Alliance for TB Drug Development, Inc., priority 2015, published 2023).)
